Assay results as given in US12630803B2, “Method of increasing proliferation of pancreatic beta cells, treatment method, and composition” (ICAHN SCHOOL OF MEDICINE AT MOUNT SINAI, priority 2018, dated 2026).
Entries after “also recorded” stand apart in the source; their conditions may differ. Ends that are not written are not given here.

Assays:
human beta cells [1] = assay: Ki67-insulin immunolabeling of dispersed human islet cells (beta cell proliferation); conditions: for actual Ki67% values: DYRK1A inhibitor alone, dispersed human islets, 96 hours, FIG. 1F; for synergy of DYRK1A inhibitor with GLP1 on beta cell proliferation: in combination with GLP1, FIGS. 1F, 4; for ability to replace or mimic GLP1 in harmine-GLP1 proliferation: agent administered together with harmine, FIGS. 5A-5C, 5E, 5F; for proliferation, agent alone at low dose: harmine 1 μM alone or GLP1 alone, FIG. 3E; for synergy of GLP1R agonist with harmine on beta cell proliferation: in combination with harmine, FIG. 1G
Text: (§3) Human Islets: Human islets from 81 normal donors were obtained through the NIH-supported Integrated Islet Distribution Program (IIDP), the Alberta Diabetes Institute Islet Core at the University of Alberta, and the Clinical Islet Laboratory, University of Alberta Hospital. Islets were harvested from pancreata from deceased organ donors without any identifying information with informed consent and IRB approval at the islet-isolating centers. […] In addition, islets were obtained from 11 donors with Type 2 diabetes. […] Three were known to be on diabetes medications (metformin n=3, DPP4 inhibitor n=1). […] Whole islets were pelleted by centrifugation at 200×G and washed twice in PBS. Islets were then incubated in Accutase for 15-17 minutes at 37° C. and completely dispersed to single cells by pipette trituration. Single islet cells were pelleted by centrifugation at 700×G and re-suspended in islet culture medium.
(§4) Compound Treatments: Dispersed islets were plated on poly-D-lysine-laminin-coated glass chamber slides or coverslips. Cells derived from 20-30 IEQ dispersed cells were seeded per well, and allowed to recover for 24 hr prior to compound treatment. Cells were treated for 96 hours prior to Ki67 staining, BrdU staining or TUNEL labeling.
Antibodies were diluted in blocking buffer (5% normal goat serum (NGS), 1% bovine serum albumin (BSA), 0.5% Triton, in PBS). […] BrdU (Cell Proliferation Labelling Reagent. Amersham GE Healthcare. GE: RPN201) was added to each treatment at a 1:100 dilution, 18 hours prior to fixation. Antigen retrieval for BrdU immunostaining was performed following fixation using 1N HCl at 37° C. for 30 minutes before primary antibody incubation.

beta (INS+) cells = assay: BrdU labeling in beta (INS+) cells of dispersed human islets; type: cell-based
Text: (§1) Primary and secondary antisera used are listed below.

alpha (GCG+) cells = assay: BrdU labeling in alpha (GCG+) cells of dispersed human islets; type: cell-based
Text: as §1

delta (SST+) cells = assay: BrdU labeling in delta (SST+) cells of dispersed human islets; type: cell-based
Text: as §1

ductal (CK19+) cells = assay: BrdU labeling in ductal (CK19+) cells of dispersed human islets; type: cell-based
Text: as §1

human beta cells [2] = assay: TUNEL assay of beta cell death; type: cell-based; conditions: 96 hours, FIGS. 10C-10D
Text: as §1

[3] = tested on: markers of beta cell differentiation; assay: qPCR of differentiation markers in islets from donors with T2D; type: cell-based, human; conditions: FIG. 9A
Text: Purity ranged from 55% to 85%.
(§2) Primers are shown below in Tables 5 and 6.

PDX1, MAFA, and NKX6.1 = conditions: normal donors, FIG. 8B
Protocol: Antibodies were diluted in blocking buffer (5% normal goat serum (NGS), 1% bovine serum albumin (BSA), 0.5% Triton, in PBS). Primary and secondary antisera used are listed below. BrdU (Cell Proliferation Labelling Reagent. Amersham GE Healthcare. GE: RPN201) was added to each treatment at a 1:100 dilution, 18 hours prior to fixation. Antigen retrieval for BrdU immunostaining was performed following fixation using 1N HCl at 37° C. for 30 minutes before primary antibody incubation. Cells were incubated with primary and secondary antibodies according to Table 4 below before counterstained with DAPI.

T2D beta cells = conditions: FIGS. 9D-9E
Text: as §3, §4
Antibodies were diluted in blocking buffer (5% normal goat serum (NGS), 1% bovine serum albumin (BSA), 0.5% Triton, in PBS). […]

cell cycle molecules = assay: qPCR of cell cycle activators and inhibitors in human islets; type: cell-based; conditions: GLP1 added to harmine, vs harmine alone, 72 hours
Text: as §2

[4] = GLP1 added to harmine, vs harmine alone

Molecule: Nc1ncnc2c1c(I)cn2[C@@H]1O[C@H](CO)[C@@H](O)[C@H]1O [5-IT, 5-iodotubercidin]
- actual Ki67% values (human beta cells [1]): 2.6%
- synergy of DYRK1A inhibitor with GLP1 on beta cell proliferation (human beta cells [1]): synergistic

Molecule: CC(C)Oc1ccc(F)c(-c2cnc(N)c(C(=O)Nc3cnccc3N3CCC[C@@H](C(=O)O)C3)n2)c1 [GNF4877]
- actual Ki67% values (human beta cells [1]): 2.9%
- synergy of DYRK1A inhibitor with GLP1 on beta cell proliferation (human beta cells [1]): synergistic

Molecule: O=S(=O)(NCCNC/C=C/c1ccc(Br)cc1)c1cccc2cnccc12 [H89]
- effect on human beta cell proliferation, agent administered alone (human beta cells [1]): no effect on its own

Molecule: CC(C)Cn1c(=O)n(C)c(=O)c2[nH]cnc21 [IBMX, 3-Isobutyl-1-methylxanthine]
- ability to replace or mimic GLP1 in harmine-GLP1 proliferation (human beta cells [1]): mimicked; also recorded: can replace GLP1
- effect on human beta cell proliferation, agent administered alone (human beta cells [1]): no effect on proliferation

Molecule: CCN1/C(=C/C(C)=O)Sc2ccc(O)cc21 [INDY]
- actual Ki67% values (human beta cells [1]): 1.7%
- synergy of DYRK1A inhibitor with GLP1 on beta cell proliferation (human beta cells [1]): synergistic

Molecule: CCCC(=O)Nc1ncnc2c1ncn2[C@@H]1O[C@@H]2COP(=O)(O)O[C@H]2[C@H]1OC(=O)CCC [di-butyryl cAMP, dibutyryl cAMP]
- ability to replace or mimic GLP1 in harmine-GLP1 proliferation (human beta cells [1]): can replace GLP1
- ability to replace or mimic GLP1 in harmine-GLP1 proliferation (human beta cells [1]; listed as dibutyryl-cyclicAMP): mimicked
- effect on human beta cell proliferation, agent administered alone (human beta cells [1]): no effect on proliferation

Molecule: OCCN(CCO)c1nc(N2CCCCC2)c2nc(N(CCO)CCO)nc(N3CCCCC3)c2n1 [dipyridamole]
- ability to replace or mimic GLP1 in harmine-GLP1 proliferation (human beta cells [1]): mimicked; also recorded: can replace GLP1
- effect on human beta cell proliferation, agent administered alone (human beta cells [1]): no effect on proliferation

Molecule: COc1ccc2c(c1)[nH]c1c(C)nccc12 [harmine]
- proliferation (BrdU) in beta cells (beta (INS+) cells; harmine alone): activates proliferation
- proliferation (BrdU) in alpha cells (alpha (GCG+) cells; harmine alone): activates proliferation
- proliferation (BrdU) in delta cells (delta (SST+) cells; harmine alone): activates proliferation
- proliferation (BrdU) in ductal cells (ductal (CK19+) cells; harmine alone): activates proliferation
- markers of beta cell death (TUNEL) (human beta cells [2]): Neither harmine nor the harmine-GLP1 combination treatment induced markers of beta cell death
- expression of differentiation markers (qPCR) [3]: did not have adverse effects on differentiation
- expression of differentiation markers (qPCR) ([3]; listed as Harmine): increased the expression of PDX1, MAFB, NKX6.1, GLUT2, GLP1R, and PCSK1
- PDX1, MAFA and NKX6.1 proteins in beta cells (PDX1, MAFA, and NKX6.1): increases in beta cell nuclei
- beta cell proliferation (Ki67 immunolabeling) (T2D beta cells): activated beta cell proliferation in T2D beta cells
- actual Ki67% values (human beta cells [1]): 2.1%
- proliferation, agent alone at low dose (human beta cells [1]): little or no proliferation
- human beta cell proliferation (Ki67 in insulin-positive cells) (human beta cells [1]; harmine alone): ~2%
- actual Ki67% value (human beta cells [1]; harmine alone, experiments of FIG. 1G): 2.2%

Molecule: O=C1NC(Nc2ccccc2)=N/C1=C\c1ccc2c(c1)OCO2 [leucettine]
- actual Ki67% values (human beta cells [1]): 2.8%
- synergy of DYRK1A inhibitor with GLP1 on beta cell proliferation (human beta cells [1]): synergistic

Molecule: GLP1(7-36)amide (HAEGTFTSDVSSYLEGQAAKEFIAWLVKGR-NH2; UniProt P01275 98-127, looked up)
- proliferation (BrdU) in beta cells (beta (INS+) cells; [4]): further increased proliferation; also recorded: accentuates
- proliferation (BrdU) in alpha cells (alpha (GCG+) cells; [4]): no additional effect
- proliferation (BrdU) in delta cells (delta (SST+) cells; [4]): no additional effect
- proliferation (BrdU) in ductal cells (ductal (CK19+) cells; [4]): further increased proliferation; also recorded: accentuates
- change to cell cycle activators or inhibitors (qPCR) (cell cycle molecules): no incremental change to cell cycle activators or inhibitors
- effect on human beta cell proliferation, agent administered alone (human beta cells [1]): negligible effects
- proliferation, agent alone at low dose (human beta cells [1]): little or no proliferation
- synergy of GLP1R agonist with harmine on beta cell proliferation (human beta cells [1]): synergy was also apparent

Molecule: exendin-4: GLP1R agonist (11940, Cayman)
- synergy of GLP1R agonist with harmine on beta cell proliferation (human beta cells [1]): synergy was also apparent

Molecule: lixisenatide: GLP1R agonist
- synergy of GLP1R agonist with harmine on beta cell proliferation (human beta cells [1]): synergy was also apparent
